Experiments:
[1] = tested on: neural stem cells (clone C17.2); test: Cell number and growth of neural stem cells under mimosine and GCV; assay type: cell-based, murine
Description: Medium was changed every third day. […] Medium was replaced on day 4 and day 6.
In contrast, untreated neural stem cell cultures continued proliferating over the same period, reaching a density of 1.7×10^6 cells/ml on day 10. […] Re-growth of neural stem cells occurred at a faster rate if cells were additionally rinsed and split 1:8 after removal of drug(s) on day 10.

[2] = tested on: neural stem cells (clone C17.2); test: Cytopathic effect and morphology of neural stem cells (drug treatment, virus infection); conditions: for cell morphology: cells below confluency, mimosine 400 μM
Method: Neural stem cells were grown in 24-well plates until they reached confluency (approximately 400,000 cells/well). Medium was changed every third day. […] Medium was replaced on day 4 and day 6. […] Cell culture medium was changed again on days 10, 13 and 17. […] Cell morphology and cells/well for different treatment conditions were determined in duplicate on days 0, 4, 7, 10, 13, and 17. The number of cells/well was determined using a Coulter Counter (Coulter Electronics, Hialeah, Fla.).
Virus titers in the conditioned medium—and in some experiments also in cell lysates—were determined by standard plaque tests on Vero cells. […] Also, the influence of the expression of viral proteins VP 16 and ICP6 (RR), mediated by infection with amplicon vectors, on the replication of hrR3 mutant virus was determined at different time points after infection of neural stem cells. Stocks of helper-free packaged amplicons HSV 16. HSVRR and HSVIacZ (100 μl each) were added to the wells on day 7, 10, or 13. Three days later titers of hrR3 in the medium were determined by plaque assay.
The genotype of hrR3 is RR- LacZ^+ [Goldstein and Weller, Virology 166: 141-51, 1988] with the lacZ gene under control of the ICP6 early viral promoter. RRP450 was derived from hrR3 by replacement of the lacZ gene with the cytochrome P450 gene [Chase et al., Nat Biotechnol 16: 444-8, 1998].

[3] = tested on: hrR3; test: Dexamethasone treatment of hrR3-infected, mimosine/GCV-treated neural stem cell cultures; assay type: cell-based, HSV-1; conditions: dexamethasone 10^-7 M on day 10; detection level

Row | Compound | cell viability ([1]; 5 μM added from day 6, compared to mimosine alone) | cell morphology [2] | virus titers in the media and cell lysates [3] | treatment time at which block of cell division and viral replication is reversible [1] [days] | Cells/well ([1]; 400 μM, 4 and 7 days after beginning of treatment) | cell number of infected cultures kept on treatment ([1]; infected MOI 1 day 7, day 13 and 17) | growth after removal of drug ([1]; removed on day 10) | virally induced CPE in presence of drug [2] | CPE ([2]; day 13, infected day 7, split 1:8 into drug-free media day 10) | CPE ([2]; day 13, infected, not split) | CPE ([2]; day 17, infected and split) | CPE ([2]; day 17, infected, non-split) | cytopathic effect associated with virus replication ([2]; infection at MOI of 10) | cytopathic effect of drug alone ([2]; uninfected)
1 | Nc1nc(O)c2ncn(COC(CO)CO)c2n1 [GCV, ganciclovir] | did not significantly affect cell viability | did not change this morphology |  |  |  |  |  |  |  |  |  |  |  | 
2 | C[C@@H]1C[C@H]2[C@@H]3CCC4=CC(=O)C=C[C@]4(C)[C@@]3(F)[C@@H](O)C[C@]2(C)[C@@]1(O)C(=O)CO [dexamethasone] |  |  | < 10 pfu/100,000 cells |  |  |  |  |  |  |  |  |  |  | 
3 | NC(Cn1ccc(=O)c(O)c1)C(=O)O (stereo not drawn) [mimosine] |  | developed extensions and a more neuronal shape |  | ≥ 13 | around 400,000 cells | remained at the same cell number | growth of neural stem cells resumed | prevented virally induced CPE | some cytopathic effect | no CPE | extensive CPE | some CPE | typical cytopathic effect | did not induce a significant cytopathic effect

Source: patent US7655224B2, “Neural stem cells and use thereof for brain tumor therapy” (priority 1998, dated 2010)
